Values quoted from earlier work as cited in EP0661967B1, “COMBINED VIRUSTATIC ANTIMEDIATOR (COVAM) TREATMENT OF COMMON COLDS” (UNIVERSITY OF VIRGINIA PATENT FOUNDATION, priority 1991, dated 1993).

Experiments:
rhinovirus [1] = conditions: in vivo
rhinovirus [2] = tested on: rhinovirus

In the case of `CC(C)[N+]1(C)[C@@H]2CC[C@H]1C[C@@H](OC(=O)C(CO)c1ccccc1)C2` (some centres unmarked) [ipratropium], the “effect on nasal symptoms and nasal mucus production” value (rhinovirus [1]) is listed as “mild beneficial effect” and the “mean total symptom scores during four days of treatment” value (rhinovirus [1]) is listed as 10±1.6.
In the case of `COc1ccc2cc([C@H](C)C(=O)O)ccc2c1` [naproxen], the “mean total symptoms score lower than that for the group receiving placebo” value (rhinovirus [2]; four days of treatment) is listed as “thirty four”, the “mean total symptoms score during the four days of treatment” value (rhinovirus [2]; loading dose 400 or 500 mg, then 200 or 500 mg three times a day for five days, begun 6 hours after virus challenge, placebo 17.35±2.6, p=0.08) is listed as 12±1.65 and the “headache, malais, myalgia, and cough” value (rhinovirus [2]; treated group versus placebo) is listed as “significantly reduced”.
